Data as given in PubChem BioAssay (NCI).
Several values for one entry are separate records, joined by “and”; a condition that tells them apart may be missing. Equal entries are not always repeated.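 Following 48 hours of exposure in 96-well plates, responses at five concentrations were used to interpolate endpoints linearly. GI50: concentration for 50% inhibition of growth. TGI: total growth inhibition.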

Tests used:
Test in all cases: NCI anticancer screen, dose series, 48 h
[1] = test system: DMS 273 small cell lung
[2] = test system: MDA-N
[3] = test system: SNB-75 CNS
[4] = test system: XF 498 CNS
[5] = test system: UACC-257 melanoma
[6] = test system: LXFL 529 NSCLC
[7] = test system: KM12 colon
[8] = test system: RPMI-8226 leukemia
[9] = test system: NCI-H522 lung
[10] = test system: MCF7 breast
[11] = test system: SF-268 CNS
[12] = test system: HCT-116 colon
[13] = test system: TK-10 renal
[14] = test system: BT-549 breast
[15] = test system: M14 melanoma
[16] = test system: SK-MEL-28 melanoma
[17] = test system: SNB-19 CNS
[18] = test system: SW-620 colon
[19] = test system: OVCAR-8 ovarian
[20] = test system: MDA-MB-231 breast
[21] = test system: EKVX NSCLC
[22] = test system: T-47D breast
[23] = test system: OVCAR-3 ovarian
[24] = test system: CCRF-CEM leukemia
[25] = test system: K-562 leukemia
[26] = test system: SR leukemia
[27] = test system: SF-295 CNS
[28] = test system: DU-145 prostate
[29] = test system: HCC-2998 colon
[30] = test system: SNB-78 CNS
[31] = test system: ACHN renal
[32] = test system: SK-OV-3 ovarian
[33] = test system: IGROV1 ovarian
[34] = test system: OVCAR-4 ovarian
[35] = test system: U251 CNS
[36] = test system: HOP-62 NSCLC
[37] = test system: 786-0 renal
[38] = test system: CAKI-1 renal
[39] = test system: A549 NSCLC
[40] = test system: HOP-18 NSCLC
[41] = test system: PC-3 prostate
[42] = test system: UACC-62 melanoma
[43] = test system: SN12C renal
[44] = test system: DLD-1 colon
[45] = test system: SK-MEL-5 melanoma
[46] = test system: NCI/ADR-RES ovarian
[47] = test system: NCI-H23 lung
[48] = test system: HL-60(TB) leukemia
[49] = test system: OVCAR-5 ovarian
[50] = test system: MDA-MB-435
[51] = test system: SK-MEL-2 melanoma
[52] = test system: NCI-H460 lung
[53] = test system: UO-31 renal
[54] = test system: MALME-3M melanoma
[55] = test system: KM20L2 colon
[56] = test system: MOLT-4 leukemia
[57] = test system: COLO 205 colon
[58] = test system: HOP-92 NSCLC
[59] = test system: SF-539 CNS
[60] = test system: HS 578T breast
[61] = test system: HT29 colon
[62] = test system: RXF 393 renal
[63] = test system: LOX IMVI melanoma
[64] = test system: A498 renal
[65] = test system: HCT-15 colon
[66] = test system: M19-MEL melanoma
[67] = test system: DMS 114 small cell lung
[68] = test system: NCI-H226 lung
[69] = test system: RXF-631 renal

Structure (SMILES): COc1cccc2c1C(=O)c1c(O)c3c(c(O)c1C2=O)C[C@@](O)(C(=O)CO)CC3OC1CC(N)C(OC2CCCCO2)C(C)O1 (some centres undefined)
- TGI [1]: 7.18 µM
- TGI [2]: 0.362 µM
- GI50 [3]: 0.0171 µM
- TGI [4]: 1.47 µM
- GI50 [5]: 0.129 µM
- TGI [5]: 0.455 µM and 3.42 µM
- TGI [6]: 3.14 µM
- GI50 [7]: 1.19 µM
- TGI [7]: 0.583 µM and 3.09 µM
- GI50 [8]: 0.00394 µM
- GI50 [9]: 0.0409 µM
- TGI [9]: 0.282 µM and 1.72 µM
- TGI [10]: 1.08 µM
- GI50 [11]: 0.00705 µM
- TGI [12]: 1.16 µM and 3.31 µM
- GI50 [13]: 0.0368 µM
- TGI [14]: 0.481 µM
- GI50 [15]: 0.0529 µM
- GI50 [16]: 0.113 µM
- GI50 [17]: 0.033 µM
- TGI [17]: 2.54 µM and 3.06 µM
- GI50 [18]: 0.113 µM
- TGI [18]: 1.03 µM and 7.04 µM
- GI50 [19]: 0.018 µM
- TGI [20]: 0.273 µM
- GI50 [21]: 0.156 µM
- TGI [21]: 1.02 µM and 7.26 µM
- TGI [22]: 0.925 µM
- GI50 [23]: 0.0709 µM
- GI50 [24]: 0.00327 µM
- GI50 [25]: 0.0247 µM
- TGI [25]: 6.58 µM
- GI50 [26]: < 0.001 µM
- GI50 [27]: 0.00963 µM
- TGI [27]: 1.13 µM and 2.44 µM
- TGI [28]: 0.0489 µM
- GI50 [29]: 0.0457 µM
- TGI [30]: 26.5 µM
- TGI [31]: 0.029 µM
- GI50 [32]: 0.0465 µM
- TGI [32]: 2.09 µM and 12 µM
- GI50 [33]: 0.0158 µM
- GI50 [34]: 1.46 µM
- GI50 [35]: 0.00812 µM
- GI50 [36]: 0.0029 µM
- GI50 [37]: 0.0131 µM
- GI50 [38]: 0.523 µM
- TGI [38]: 5.38 µM and 2.76 µM
- GI50 [39]: 0.00469 µM
- TGI [39]: 1.15 µM
- TGI [40]: 1.06 µM
- TGI [41]: 0.363 µM
- GI50 [42]: 0.0205 µM
- GI50 [43]: 0.0157 µM
- TGI [44]: 17.8 µM
- GI50 [45]: 0.0291 µM
- TGI [45]: 0.179 µM and 1.08 µM
- TGI [46]: 4.06 µM
- GI50 [47]: 0.0218 µM
- TGI [47]: 0.302 µM and 2.33 µM
- GI50 [48]: < 0.001 µM
- GI50 [49]: 0.0682 µM
- TGI [49]: 2.08 µM and 8.5 µM
- TGI [50]: 0.229 µM
- TGI [51]: 4.1 µM
- TGI [52]: 1.08 µM and 5.09 µM
- TGI [53]: 5.46 µM
- GI50 [54]: 0.00377 µM
- TGI [55]: 4.98 µM
- GI50 [56]: < 0.001 µM
- TGI [56]: 0.276 µM and 0.576 µM
- GI50 [57]: 0.02 µM
- TGI [58]: 0.537 µM
- GI50 [59]: 0.00352 µM
- TGI [60]: 1.11 µM
- GI50 [61]: 0.0381 µM
- TGI [61]: 1.81 µM and 17.1 µM
- GI50 [62]: 0.12 µM
- GI50 [63]: 0.0184 µM
- TGI [63]: 1 µM and 1.62 µM
- TGI [64]: 1.16 µM
- GI50 [65]: 0.034 µM
- TGI [65]: 2.36 µM and 13.3 µM

Structure (SMILES): Cc1ccc2c(c1)-c1c3c(nn1C)-c1ccccc1SC3O2 (centres undefined)
- TGI [1]: > 100 µM
- TGI [3]: > 100 µM
- TGI [4]: 88.5 µM
- TGI [5]: > 100 µM
- TGI [6]: > 100 µM
- TGI [7]: > 100 µM
- TGI [8]: > 100 µM
- TGI [9]: > 100 µM
- TGI [11]: > 100 µM
- TGI [12]: > 100 µM
- TGI [13]: > 100 µM
- TGI [16]: > 100 µM
- TGI [18]: > 100 µM
- TGI [19]: > 100 µM
- TGI [21]: > 100 µM
- TGI [23]: > 100 µM
- TGI [24]: > 100 µM
- TGI [25]: > 100 µM
- TGI [27]: > 100 µM
- TGI [29]: > 100 µM
- TGI [30]: > 100 µM
- TGI [31]: > 100 µM
- TGI [32]: > 100 µM
- TGI [33]: > 100 µM
- TGI [35]: > 100 µM
- TGI [36]: > 100 µM
- TGI [37]: > 100 µM
- TGI [66]: > 100 µM
- TGI [39]: > 100 µM
- TGI [40]: > 100 µM
- TGI [44]: > 100 µM
- TGI [47]: > 100 µM
- TGI [48]: > 100 µM
- TGI [49]: > 100 µM
- TGI [51]: > 100 µM
- TGI [52]: > 100 µM
- TGI [53]: 88.7 µM
- TGI [67]: > 100 µM
- TGI [54]: > 100 µM
- TGI [55]: > 100 µM
- TGI [56]: > 100 µM
- TGI [57]: > 100 µM
- TGI [58]: > 100 µM
- TGI [59]: > 100 µM
- TGI [61]: > 100 µM
- TGI [62]: > 100 µM
- TGI [63]: > 100 µM
- TGI [64]: > 100 µM

Structure (SMILES): CC1(C)c2ccccc2N2C(c3ccccc3)=NOC21C (centres undefined)
- TGI [1]: > 100 µM
- TGI [3]: > 100 µM
- TGI [5]: > 100 µM
- TGI [6]: > 100 µM
- TGI [7]: > 100 µM
- TGI [8]: > 100 µM
- TGI [9]: > 100 µM
- TGI [11]: > 100 µM
- TGI [12]: > 100 µM
- TGI [13]: > 100 µM
- TGI [15]: > 100 µM
- TGI [16]: > 100 µM
- TGI [17]: > 100 µM
- TGI [68]: > 100 µM
- TGI [18]: > 100 µM
- TGI [19]: > 100 µM
- TGI [21]: > 100 µM
- TGI [23]: > 100 µM
- TGI [24]: > 100 µM
- TGI [25]: > 100 µM
- TGI [26]: > 100 µM
- TGI [69]: > 100 µM
- TGI [27]: > 100 µM
- TGI [30]: > 100 µM
- TGI [31]: > 100 µM
- TGI [32]: > 100 µM
- TGI [33]: > 100 µM
- TGI [34]: > 100 µM
- TGI [35]: > 100 µM
- TGI [36]: > 100 µM
- TGI [37]: > 100 µM
- TGI [38]: > 100 µM
- TGI [66]: > 100 µM
- TGI [39]: > 100 µM
- TGI [40]: > 100 µM
- TGI [42]: > 100 µM
- TGI [43]: > 100 µM
- TGI [44]: > 100 µM
- TGI [45]: > 100 µM
- TGI [47]: > 100 µM
- TGI [48]: > 100 µM
- TGI [49]: > 100 µM
- TGI [51]: > 100 µM
- TGI [52]: > 100 µM
- TGI [53]: > 100 µM
- TGI [67]: > 100 µM
- TGI [54]: > 100 µM
- TGI [55]: > 100 µM
- TGI [56]: > 100 µM
- TGI [57]: > 100 µM
- TGI [58]: > 100 µM
- TGI [59]: > 100 µM
- TGI [61]: > 100 µM
- TGI [62]: > 100 µM
- TGI [63]: > 100 µM
- TGI [64]: > 100 µM
- TGI [65]: > 100 µM

Structure (SMILES): CNC(=O)C(C)Oc1ccc(OCC2CCCCC2)cc1 (centres undefined)
- TGI [1]: > 100 µM
- TGI [3]: > 100 µM
- TGI [5]: > 100 µM
- TGI [6]: > 100 µM
- TGI [7]: > 100 µM
- TGI [9]: > 100 µM
- TGI [11]: > 100 µM
- TGI [12]: > 100 µM
- TGI [13]: > 100 µM
- TGI [15]: > 100 µM
- TGI [16]: > 100 µM
- TGI [17]: > 100 µM
- TGI [68]: > 100 µM
- TGI [19]: > 100 µM
- TGI [23]: > 100 µM
- TGI [24]: > 100 µM
- TGI [25]: > 100 µM
- TGI [27]: > 100 µM
- TGI [30]: > 100 µM
- TGI [31]: > 100 µM
- TGI [32]: > 100 µM
- TGI [33]: > 100 µM
- TGI [34]: > 100 µM
- TGI [35]: > 100 µM
- TGI [37]: > 100 µM
- TGI [66]: > 100 µM
- TGI [39]: > 100 µM
- TGI [40]: > 100 µM
- TGI [42]: > 100 µM
- TGI [43]: > 100 µM
- TGI [44]: > 100 µM
- TGI [45]: > 100 µM
- TGI [47]: > 100 µM
- TGI [48]: > 100 µM
- TGI [51]: > 100 µM
- TGI [52]: > 100 µM
- TGI [53]: > 100 µM
- TGI [67]: > 100 µM
- TGI [54]: > 100 µM
- TGI [56]: > 100 µM
- TGI [59]: > 100 µM
- TGI [61]: > 100 µM
- TGI [62]: > 100 µM
- TGI [63]: > 100 µM
- TGI [64]: > 100 µM
- TGI [65]: > 100 µM
